Source: the NIST ThermoML archive (doi:10.1021/je060485s)

Assays:
[1] = xn = mol fraction of the nth substance listed; conditions: for surface tension liquid-gas: Pendant drop shape; for mass density: 101 kPa, Liquid
[2] = for surface tension liquid-gas: Pendant drop shape; for mass density: 101 kPa, Liquid

CCc1ccccc1 [ethylbenzene] + CCCOC(C)=O
[1], x2 = 0
Conditions | mass density [kg/m3] | surface tension liquid-gas [mN/m]
298.15 K | 862.25 | 28.79
303.15 K | 857.88 | 28.29
308.15 K | 853.43 | 27.85

CCCOC(C)=O [propyl ethanoate] + Cc1ccccc1C
[1]
Conditions | mass density [kg/m3] | surface tension liquid-gas [mN/m]
298.15 K, x1 = 0.0998 | 876.04 | 28.94
298.15 K, x1 = 0.1995 | 876.96 | 28.14
298.15 K, x1 = 0.2996 | 877.83 | 27.47
298.15 K, x1 = 0.4002 | 878.67 | 26.85
298.15 K, x1 = 0.5001 | 879.45 | 26.27
298.15 K, x1 = 0.6004 | 880.18 | 25.71
298.15 K, x1 = 0.7002 | 880.85 | 25.18
298.15 K, x1 = 0.7999 | 881.46 | 24.69
298.15 K, x1 = 0.9 | 882.03 | 24.25
298.15 K, x1 = 1 | 882.54 | 23.91
303.15 K, x1 = 0.0999 | – | 28.41
303.15 K, x1 = 0.1 | 871.68 | –
303.15 K, x1 = 0.1997 | 872.48 | 27.6
303.15 K, x1 = 0.2992 | 873.22 | 26.92
303.15 K, x1 = 0.3998 | 873.93 | 26.3
303.15 K, x1 = 0.4993 | 874.57 | 25.74
303.15 K, x1 = 0.6002 | 875.17 | 25.2
303.15 K, x1 = 0.6994 | 875.7 | 24.7
303.15 K, x1 = 0.8002 | 876.19 | 24.24
303.15 K, x1 = 0.902 | 876.63 | 23.81
303.15 K, x1 = 1 | 876.99 | 23.46
308.15 K, x1 = 0.0999 | 867.33 | 27.8
308.15 K, x1 = 0.1999 | 867.99 | 27.05
308.15 K, x1 = 0.3001 | 868.59 | 26.35
308.15 K, x1 = 0.3989 | 869.15 | 25.73
308.15 K, x1 = 0.5002 | 869.66 | 25.14
308.15 K, x1 = 0.6008 | 870.11 | 24.6
308.15 K, x1 = 0.6998 | 870.5 | 24.1
308.15 K, x1 = 0.8007 | 870.84 | 23.63
308.15 K, x1 = 0.9 | 871.12 | 23.2
308.15 K, x1 = 1 | 871.35 | 22.79

Cc1cccc(C)c1 [1,3-dimethylbenzene]
[2]
Conditions | mass density [kg/m3] | surface tension liquid-gas [mN/m]
298.15 K | 859.8 | 28.47
303.15 K | 855.51 | 27.93
308.15 K | 851.19 | 27.37

CCCOC(C)=O [propyl ethanoate] + Cc1ccc(C)cc1
[1]
Conditions | mass density [kg/m3] | surface tension liquid-gas [mN/m]
298.15 K, x1 = 0.1 | 859.6 | 27.56
298.15 K, x1 = 0.1995 | 862.22 | 27.04
298.15 K, x1 = 0.2981 | 864.8 | 26.54
298.15 K, x1 = 0.3986 | 867.38 | 26.05
298.15 K, x1 = 0.4993 | 869.95 | 25.61
298.15 K, x1 = 0.6002 | 872.51 | 25.23
298.15 K, x1 = 0.6991 | 875 | 24.89
298.15 K, x1 = 0.7993 | 877.52 | 24.56
298.15 K, x1 = 0.8999 | 880.05 | 24.23
298.15 K, x1 = 1 | 882.54 | 23.91
303.15 K, x1 = 0.0994 | 855.13 | 26.98
303.15 K, x1 = 0.1992 | 857.64 | 26.48
303.15 K, x1 = 0.2992 | 860.13 | 25.99
303.15 K, x1 = 0.3991 | 862.58 | 25.52
303.15 K, x1 = 0.5009 | 865.05 | 25.1
303.15 K, x1 = 0.5998 | 867.44 | 24.76
303.15 K, x1 = 0.6999 | 869.84 | 24.43
303.15 K, x1 = 0.8009 | 872.26 | 24.1
303.15 K, x1 = 0.8997 | 874.63 | 23.78
303.15 K, x1 = 1 | 876.99 | 23.46
308.15 K, x1 = 0.1001 | 850.7 | 26.61
308.15 K, x1 = 0.1999 | 853.09 | 26.09
308.15 K, x1 = 0.2992 | 855.43 | 25.57
308.15 K, x1 = 0.4001 | 857.77 | 25.06
308.15 K, x1 = 0.4996 | 860.06 | 24.62
308.15 K, x1 = 0.6 | 862.35 | 24.23
308.15 K, x1 = 0.6996 | 864.61 | 23.87
308.15 K, x1 = 0.8003 | 866.88 | 23.51
308.15 K, x1 = 0.9002 | 869.14 | 23.15
308.15 K, x1 = 1 | 871.35 | 22.79

Cc1ccc(C)cc1 [1,4-dimethylbenzene] + CCCOC(C)=O
[1], x2 = 0
Conditions | mass density [kg/m3] | surface tension liquid-gas [mN/m]
298.15 K | 856.92 | 28.08
303.15 K | 852.58 | 27.47
308.15 K | 848.26 | 27.13
